The text below walks through data of publication PMC11557314 (Frontiers in Pharmacology, 2024).

Where two headings read alike, the source gives them in different places. Where no end group is shown, it is not given here.

Test [1] relates to p38 phosphorylation in hKOPr-CHO cells. Nature of the test: Western blot of phospho-p38 in hKOPr-CHO cells. The format is cell-based, human. Conditions: 1 µM, 10 min, ratio phosphorylated to non-phosphorylated protein. The protocol:
hKOPr-CHO cells were seeded in 10-cm dishes and cultured until they reached 70%–80% confluency. Overnight serum starvation was initiated by replacing the culture medium with FBS-free medium [DMEM supplemented with 100 μg/mL GlutaMAX, 100 μg/mL penicillin/streptomycin, and 400 μg/mL geneticin (G418)]. […] The FBS-free medium was used as the control. After the treatment, cells were rinsed and harvested in cold PBS by scraping the dishes using a rubber policeman. Cell suspensions were centrifuged at 4°C for 7 min at 21,000 g, and the supernatants were removed. Pellets were then resuspended and washed in ice-cold PBS. […] Total proteins of the supernatant cell lysate were quantified by the biuret assay (Carl Roth GmbH, Karlsruhe, Germany). Antibody linearity ranges were determined for target proteins and the internal loading control, and the combined linear range was then used to determine how much sample should be loaded in order to produce a linear signal response. […] Immunoreactive bands were detected by incubating the membranes in a horseradish peroxidase-conjugated secondary antibody (1:5,000, Invitrogen), followed by incubation with enhanced chemiluminescence reagent (Merck Immobilon). […] To avoid errors introduced by stripping the membranes, total and phosphorylated proteins were analyzed from parallel gels. […]

Test [2] concerns the target hKOPr (Homo sapiens, UniProt P41145). The test can be described thus: biochemical. Particulars: for Emax: read-out: Efficacy at hKOPr Emax.
[3] abbreviates: read-out: Potency at hKOPr EC50.
The mark [4] stands for this setting: read-out: hKOPr EC50, stimulation of [35S]GTPγS binding.

hKOPr, sequence (P41145 whole entry): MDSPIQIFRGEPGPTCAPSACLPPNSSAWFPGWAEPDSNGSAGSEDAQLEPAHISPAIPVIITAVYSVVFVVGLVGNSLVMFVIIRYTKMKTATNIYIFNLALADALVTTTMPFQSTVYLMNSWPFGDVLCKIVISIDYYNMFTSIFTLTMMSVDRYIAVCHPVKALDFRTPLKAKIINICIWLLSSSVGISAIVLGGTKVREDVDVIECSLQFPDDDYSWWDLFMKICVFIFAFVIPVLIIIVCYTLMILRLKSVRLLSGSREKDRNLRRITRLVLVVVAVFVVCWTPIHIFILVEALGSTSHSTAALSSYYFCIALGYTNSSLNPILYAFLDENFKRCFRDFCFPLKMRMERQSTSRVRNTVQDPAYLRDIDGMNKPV

The term Emax denotes the maximal effect, on the per cent scale that the assay sets. For orientation: EC50 means the concentration giving half of the maximal effect. In the case of YGGFSRRQFKVVT [DynB_L5S], the “p38 phosphorylation compared to DynB_WT” value in test [1] is “significantly less phosphorylated”. Further, in test [2], the “Selectivity DOPr/KOPr (GTPγS)” value is recorded as 17; the “Selectivity MOPr/KOPr (GTPγS)” value is listed as 6; the “hKOPr % stim, stimulation of [35S]GTPγS binding” value is 99.1 ± 2.1%; the “preference for hKOPr over hDOPr (GTPγS)” value stood at 17 fold. Further, the Emax in test [2] was 99.1 ± 2.1%. In addition, the concentration for a half-maximal effect (EC50) in test [2] (setting [3]) is 17.7 ± 2.84 nM. Also, the EC50 in test [2] (setting [4]) was determined as 17.7 ± 2.8 nM.
Consider YGAFLRRAFKVVT [DynB_G3A/Q8A], for which the “p38 phosphorylation compared to DynB_WT” value in test [1] is reported as “significantly less phosphorylated”. In test [2], the “Selectivity DOPr/KOPr (GTPγS)” value was 84; the “Selectivity MOPr/KOPr (GTPγS)” value was found to be 20; the “hKOPr % stim, stimulation of [35S]GTPγS binding” value is 88.6 ± 3.1%; the “potency for hKOPr as compared to DynB (GTPγS)” value is recorded as “minor reduction in the potency”. Also, in test [2], the “preference for hKOPr over hDOPr (GTPγS)” value was 84 fold, the “preference for hKOPr over hMOPr (GTPγS)” value was determined as 20 fold and the maximum response (Emax) was 88.6 ± 3.1%. Besides, the concentration giving a half-maximal response (EC50) in test [2] (setting [3]) amounted to 14.6 ± 1.57 nM. The half-maximal effective concentration (EC50) in test [2] (setting [4]) came to 14.6 ± 1.6 nM.
